These results are taken from publication PMC5697638, “Identification of a Potent Phosphoinositide 3‐Kinase Pan Inhibitor Displaying a Strategic Carboxylic Acid Group and Development of Its Prodrugs” (Chemmedchem, 2017).

Data set [1] concerns PI3K/Akt signaling in PC3 cells. Description: PI3K/Akt signaling, Western blot, PC3 cells. It counts as cell-based. Particulars: 12 h treatment, immunoblot. As to the method: PC3 cells were treated with the indicated concentrations of 64 for 12 h. At the end of treatment, cells were harvested and total cell lysates were prepared. Immunoblot analysis was performed to analyze the expression levels of p‐Akt (T308 and S473), p‐PRAS40 (T246; a target of Akt), as well as the levels of p‐p70S6K (T389), p‐GSK3α/β (S9), and p‐FOXO3A (T32). The figure is representative of at least three independent experiments.
Western blot analysis: PC3 cells were seeded in 96‐well plates in the presence of free Dulbecco's modified Eagle's medium (DMEM) high‐glucose GlutaMAX^TM (Gibco), 10 % fetal bovine serum (Invitrogen) supplemented with 5000 U mL^−1 penicillin–streptomycin (Gibco). Subsequently, PC3 cells were incubated with increasing concentrations of […] for 12 h. Cells were then lysed with a lysis buffer containing 20 mM Tris‐HCl pH 8, 138 mM NaCl, 2.7 mM KCl, 1 mM CaCl2, 5 mM EDTA pH 8, 1 mM MgCl2, 5 % glycerol, 1 % Triton X‐100, and protein extracts were analyzed by Western blot analysis. […]

Data set [2] can be described thus: stability in mouse plasma. The data set is classed as in vitro ADME. Particulars: mouse, mouse plasma, 50 μM substrate, 30 min incubation, 37 °C; read-out: Mouse plasma t 1/2. As to the method:
Twelve esters were prepared (see the Experimental Section for their synthesis and the Supporting Information for chromatographic methods) and evaluated in terms of metabolic stability. For this task, a combined approach based on microsomal and plasmatic stability assays was exploited considering the relevance of the plasmatic and hepatic tissues in esterase activity. Microsomal stability of the selected esters was evaluated by monitoring the disappearance of the substrate incubated in rat liver microsomes (RLM) at 50 μM concentration, in the presence of NADPH. In Table 4, the percentage of the remaining substrate, after incubation (t=60 min), with respect to the initial amount is reported. Overall, the compounds underwent a relevant metabolic transformation, and the substrate depletion ranged from 0 (for 76) to 100 % (for 70). This is mainly due to hydrolysis of the ester function, whereas the metabolites arising from the oxidation catalyzed by the NADPH‐dependent monooxygenase system were negligible from a quantitative point of view. Indeed, the main metabolite formed during the incubation of the esters was corresponding carboxyl derivative 37. […] Moreover, whereas CH2‐pyridin‐4‐yl ester 70 was completely metabolized, corresponding benzyl derivative 65 and piperonyl derivative 72 were more hydrolytically stable, and their residual substrates were 53 and 83 %, respectively. The hydrolytic stability of the selected esters was also evaluated by monitoring the depletion of the substrate incubated at a 50 μM concentration in mouse plasma over a period of 30 min. As expected, the plasmatic metabolic fate of the esters was characterized by the formation of 37 as the only metabolite (see Figure S4). The rate constant k [min^−1], derived for the substrate peak area versus time curve (single‐exponential decay equation—GraphPad Prism software, Inc., San Diego, CA (USA); see Figure S5) was used to calculate the in vitro half‐life t 1/2 [min], and the values are reported in Table 4. […]
Stability of PI3K inhibitors in mouse plasma
An aliquot of 460 µL of blank plasma spiked with substrate (50 µM, final concentration, DMSO 5%) was incubated at 37 °C for 30 minutes. Aliquots (70 µL) of the incubation took at 0-2-5-10-20, and 30 minutes were diluted with 140 µL of acetonitrile, homogenized, and centrifuged at 13,000 rpm for five minutes. Supernatants (20 µL) were injected onto HPLC.
A Shimadzu HPLC system (Shimadzu, Kyoto, Japan), consisting of two LC-10AD Vp module pumps, an SLC-10A Vp system controller, an SIL-10AD Vp autosampler, and a DGU-14-A on-line degasser was used for the analysis. All the chromatographic separations were performed on a Phenomenex Luna C18 5µm (150 x 4.6 mm i.d.) (Phenomenex srl, Castel Bolognese, Italy) as a stationary phase protected by a Luna C18 SecurityGuard (Phenomenex srl). The SPD-M10Avp photodiode array detector was used to detect the analyte at 254 nm. LC Solution 1.24 software was used to process the chromatograms. Aliquots (20 µL) of supernatants obtained from incubations were injected onto the HPLC system and eluted with a mobile phase (flow rate: 1 mL/min) consisting of solvent A- 0.5% aqueous formic acid solution and solvent B- acetonitrile/methanol 80:20.
The eluants were filtered through a 0.45-µm pore size polyvinylidene difluoride membrane […]
The following gradients programs were used: […]

Data set [3] is described as follows: metabolic stability in rat liver microsomes (RLM). The data set is classed as in vitro ADME. Particulars: 50 μM substrate, 60 min. In general terms: Liver microsomes are vesicles of endoplasmic reticulum, rich in cytochrome P450 enzymes.

On to `COC(=O)c1cccc(Cn2cc(-c3cccc4c(=O)cc(N5CCOCC5)[nH]c34)nn2)c1` [Compound 64, Methyl 3‐{[4‐(2‐morpholino‐4‐oxo‐1,4‐dihydroquinolin‐8‐yl)‐1H‐1,2,3‐triazol‐1‐yl]methyl}benzoate], for which the “levels of p-Akt and Akt effectors” value in data set [1] was “attenuated, in a dose‐dependent manner, the levels of p‐Akt”. For the same compound, the half-life at 50 µM in data set [2] was 13.3 min. Further, the “% residual substrate, RLM (without NADPH)” value in data set [3] turned out to be 32%.
